The target of assay [1] is T1, LIMP-2 ectodomain (His6.hLIMP-2(aa35-430)) (Homo sapiens, UniProt Q14108).
T1 construct: gene SCARB2; luminal domain aa 35-430, N-terminal His6 tag (cloned after a protein A tag)
T1 sequence (Q14108 35-430): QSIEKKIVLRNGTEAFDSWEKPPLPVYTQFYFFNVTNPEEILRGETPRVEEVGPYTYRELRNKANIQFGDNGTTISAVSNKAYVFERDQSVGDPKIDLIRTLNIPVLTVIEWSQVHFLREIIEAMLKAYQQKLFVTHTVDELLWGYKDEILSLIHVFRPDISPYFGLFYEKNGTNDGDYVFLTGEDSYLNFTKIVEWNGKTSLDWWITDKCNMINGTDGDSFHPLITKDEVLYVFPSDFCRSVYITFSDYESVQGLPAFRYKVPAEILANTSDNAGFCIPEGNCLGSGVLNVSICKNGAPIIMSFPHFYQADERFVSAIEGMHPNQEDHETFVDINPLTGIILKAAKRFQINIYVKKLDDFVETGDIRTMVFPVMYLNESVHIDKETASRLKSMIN
The assay can be described thus: UV crosslinking and click rhodamine, SDS-PAGE. It is filed as binding. Conditions: covalent; labelled compound; 50 µM probe, 12 h at 4 °C, UV 15 min.

Assay [2] deals with T1, LIMP-2 ectodomain (His6.hLIMP-2(aa35-430)). The assay can be described thus: microscale thermophoresis. It is filed as binding. The settings on record: 25 nM protein labelled with Red-tris-NTA; 300 mM NaAc pH 6.0, 150 mM NaCl, 0.05% Tween 20, 0.1% Fos-Choline 13; room temperature; read-out: EC50. The text has this: microscale thermophoresis on LIMP-2 ectodomain (His6.hLIMP-2(aa35-430)) | direct interaction between purified, soluble His-tagged LIMP-2 protein labeled with Red-tris-NTA dye and cholesterol
For orientation: In MST a laser heats a spot of the sample, and binding alters the fluorescence response.

Turning to `C#CCCCC1(CCCCCCCCC(=O)O)N=N1` [pacFA], the “UV crosslinking and click rhodamine, SDS-PAGE” value in assay [1] is “fatty acids, ceramide and sphingosine bound with lower affinity”. On the same count and under the same terms, as for `C#CCCCC1(CCCCCCCC/C=C/[C@@H](O)[C@@H](N)CO)N=N1` [photoclick sphingosine], the entry is “fatty acids, ceramide and sphingosine bound with lower affinity”. In the case of `CC(C)CCC[C@@H](C)[C@H]1CC[C@H]2[C@@H]3CC=C4C[C@@H](O)CC[C@]4(C)[C@H]3CC[C@]12C` [cholesterol], the Kd in assay [2] is 0.112 ± 0.032 µM. `C#CCCCC1(CCCCCCCCC(=O)N[C@@H](CO)[C@H](O)/C=C/CCCCCCCCCCCCC)N=N1` [pacFA ceramide]: the “UV crosslinking and click rhodamine, SDS-PAGE” value in assay [1] is “fatty acids, ceramide and sphingosine bound with lower affinity”.

The values above are taken from article PMC6684646, “Lysosomal integral membrane protein-2 (LIMP-2/SCARB2) is involved in lysosomal cholesterol export” (Nature Communications, 2019).
